In patent publication US8859608B2, “Spiro amino compounds suitable for the treatment of inter alia sleep disorders and drug addiction” (Rottapharm Biotech S.R.L., priority 2009, dated 2014):
Where two headings read alike, the source gives them in different places.

Legend:
human OX2 receptor = target: T1, human OX2 receptor (Homo sapiens, UniProt O43614); test: FLIPR measurement of intracellular calcium, antagonistic activity at OX2
T1 sequence (O43614 1-444): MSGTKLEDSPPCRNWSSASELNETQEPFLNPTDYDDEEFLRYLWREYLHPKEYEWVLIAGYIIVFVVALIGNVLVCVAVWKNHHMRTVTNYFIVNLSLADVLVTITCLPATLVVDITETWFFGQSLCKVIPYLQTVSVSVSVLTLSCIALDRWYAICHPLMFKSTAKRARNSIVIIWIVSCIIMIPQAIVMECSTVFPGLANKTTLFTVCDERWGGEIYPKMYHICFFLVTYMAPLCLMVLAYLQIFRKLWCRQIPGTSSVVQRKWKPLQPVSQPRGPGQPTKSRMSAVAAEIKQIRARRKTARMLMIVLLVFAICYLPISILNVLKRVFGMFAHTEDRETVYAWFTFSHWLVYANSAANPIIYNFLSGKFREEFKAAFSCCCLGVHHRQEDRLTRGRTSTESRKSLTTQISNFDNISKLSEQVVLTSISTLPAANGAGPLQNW
Method: (§2) Thus the plate was loaded with the calcium dye (Fluo-4NW/probenecid in HBSS, Hepes 20 mM, pH 7,4; Invitrogen) at 37° C. for 60 min. Afterward the temperature was equilibrated at 22° C. for 15 min and the [Ca2+]i measured directly on the plate by using a fluorescent plate reader (CeliLux Perkin Elmer).
(§3) After 5 min CHO cells were activated with orexin-A, 3 nM while HEK-293 cells were activated with orexin-B, 10 nM.
(§4) The antagonistic activity has been expressed as pKb (co-logarithm of the apparent dissociation constant calculated by using the modified Cheng Prusoff equation).

human OX1 receptor = target: T2, human OX1 receptor (Homo sapiens, UniProt O43613); test: FLIPR measurement of intracellular calcium, antagonistic activity at OX1; details: for Kb: pKb OX1, CHO cells with human recombinant OX1, activated with orexin-A 3 nM, 1 nM-1 μM range, modified Cheng Prusoff; for selectivity against the OX1 receptor: OX1 versus OX2, from the pKb table
T2 sequence (O43613 1-425): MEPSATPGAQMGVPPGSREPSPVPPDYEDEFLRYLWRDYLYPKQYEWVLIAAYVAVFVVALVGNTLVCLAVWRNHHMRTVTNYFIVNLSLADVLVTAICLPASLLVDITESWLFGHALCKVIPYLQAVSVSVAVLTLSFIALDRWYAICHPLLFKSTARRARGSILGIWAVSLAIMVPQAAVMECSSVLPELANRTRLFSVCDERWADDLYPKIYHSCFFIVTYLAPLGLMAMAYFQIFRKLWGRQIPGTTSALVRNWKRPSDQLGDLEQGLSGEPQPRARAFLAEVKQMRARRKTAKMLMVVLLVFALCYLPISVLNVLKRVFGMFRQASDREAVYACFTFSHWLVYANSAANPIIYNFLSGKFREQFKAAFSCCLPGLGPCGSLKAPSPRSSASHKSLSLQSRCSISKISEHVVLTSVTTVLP
Method: as §2, §3, §4

[1] = Pharmacokinetics in male Han Wistar rats, intravenous and oral; assay type: in vivo; details: 1 mg/kg
Method: (§1) The pharmacokinetics of compound 4 were studied in male Han Wistar rats. The rats were treated intravenously and orally (n=3 for each dose route) with a compound 2 solution at the dose of 1 mg/kg, formulated in Lactic acid 150 mM pH 4.5 in water, 5% DMSO, 10% TWEEN 80. The rats were fitted with a jugular cannula for serial sampling, a full profile was acquired for each rat. Another group of rats (n=3) was treated intravenously and sacrificed after 1 hour harvesting arterial blood and brain to assess brain penetration. Plasma and brain extracts were quantitatively analyzed using a specific and sensitive LC-MS/MS bioanalytical method. Inter-individual variations between the three rats in each group were limited (CV for pharmacokinetic parameters was below 30%).

[2] = Brain penetration in rats 1 hour after intravenous treatment; assay type: in vivo; details: male, Han Wistar, rat, one hour after intravenous administration, 1 mg/kg
Method: as §1

[3] = male, Han Wistar, plasma, rat, intravenous

SMILES | Kb (human OX2 receptor) [nM] | Kb (human OX1 receptor) [nM] | other results
Cc1nc(C(=O)N2CCC3(CC3)C[C@H]2CNc2cccc(Cl)n2)c(-c2ccccc2)s1 [Compound 17, (S)-(5-(((6-chloropyridin-2-yl)amino)methyl)-6-azaspiro[2.5]octan-6-yl)(2-methyl-5-phenylthiazol-4-yl)methanone] | > 10000 | 31.6 | –
Cc1cc(C)nc(NC[C@@H]2CC3(CCN2C(=O)c2nc(C)sc2-c2ccccc2)CC3)n1 [Compound 22, (S)-(5-(((4,6-dimethylpyrimidin-2-yl)amino)methyl)-6-azaspiro[2.5]octan-6-yl)(2-methyl-5-phenylthiazol-4-yl)methanone] | > 10000 | 20 | –
O=C(c1ccccc1OCC1CC1)N1CCC2(CC2)CC1CNc1ccc(Cl)cn1 (racemic) [Compound 9, (±) (5-((5-chloropyridin-2-ylamino)methyl)-6-azaspiro[2.5]octan-6-yl)(2-(cyclopropylmethoxy)phenyl)methanone] | > 10000 | 100 | –
COC(=O)c1cc(Cl)ccc1NCC1CC2(CCN1C(=O)c1nc(C)sc1-c1ccc(F)cc1)CC2 (racemic) [Compound 15, (±)methyl 5-chloro-2-((6-(5-(4-fluorophenyl)-2-methylthiazole-4-carbonyl)-6-azaspiro[2.5]octan-5-yl)methylamino)benzoate] | > 10000 | 126 | –
Cc1nc(C(=O)N2CCC3(CC3)C[C@H]2CNc2cccc(C(F)(F)F)n2)c(-c2ccccc2)s1 [Compound 18, (S)-(2-methyl-5-phenylthiazol-4-yl)(5-(((6-(trifluoromethyl)pyridin-2-yl)amino)methyl)-6-azaspiro[2.5]octan-6-yl)methanone] | > 10000 | 50.1 | –
Cc1cccc(NCC2CC3(CCN2C(=O)c2nc(C)sc2-c2ccccc2)CC3)n1 (racemic) [Compound 1, (±) (2-methyl-5-phenylthiazol-4-yl)(5-((6-methylpyridin-2-ylamino)methyl)-6-azaspiro[2.5]octan-6-yl)methanone] | > 10000 | – | selectivity against the OX1 receptor (human OX1 receptor): same behaviour
Cc1nc(C(=O)N2CCC3(CC3)CC2CNc2ccc(Cl)cn2)c(-c2ccccc2)s1 (single isomer, unassigned) [Compound 5, (5-((5-chloropyridin-2-ylamino)methyl)-6-azaspiro[2.5]octan-6-yl)(2-methyl-5-phenylthiazol-4-yl)methanone] | > 1000 | 12.6 | –
Cc1nc(C(=O)N2CCC3(CC3)CC2CNc2ccc(C(F)(F)F)cn2)c(-c2ccccc2)s1 (single isomer, unassigned) [Compound 8, (2-methyl-5-phenylthiazol-4-yl)(5-((5-(trifluoromethyl)pyridin-2-ylamino)methyl)-6-azaspiro[2.5]octan-6-yl)methanone] | > 10000 | 20 | selectivity against the OX1 receptor (human OX1 receptor): same behaviour
Cc1cccc(NCC2CC3(CCN2C(=O)c2nc(C)sc2-c2ccccc2)CC3)n1 (single isomer, unassigned) [Compound 2, (2-methyl-5-phenylthiazol-4-yl)(5-((6-methylpyridin-2-ylamino)methyl)-6-azaspiro[2.5]octan-6-yl)methanone] | > 10000 | 6.31 | clearance as share of rat liver blood flow ([1]; intravenous): 40%; AUC [1, 3]: ~740 ng·h/mL; clearance [1, 3]: ~5.33 mL/min; Vd ([1]; male, Han Wistar, plasma, rat, intravenous, read-out: average volume of distribution (Vss)): 0.33 L; bioavailability ([1]; male, Han Wistar, plasma, rat, oral solution, read-out: absolute oral bioavailability): 50%; AUC ([1]; male, Han Wistar, plasma, rat, oral): ~360 ng·h/mL; oral AUC as share of AUC after intravenous administration ([1]; rat): about 50%; time of maximum concentration ([1]; rat, oral): ≤ 30 min; selectivity against the OX1 receptor (human OX1 receptor): highly selective; concentration at 1 h ([2]; arterial plasma, read-out: average arterial plasmatic level): 126 ng/mL; Kp at 1 h ([2]; brain/plasma, read-out: Brain/plasma concentrations ratio): 0.66; concentration at 1 h ([2]; brain, read-out: average total brain level): 83 ng/g
Cc1nc(C(=O)N2CCC3(CC3)CC2CNc2ccc(C(F)(F)F)cn2)c(-c2ccccc2)s1 (racemic) [Compound 7, (±) (2-methyl-5-phenylthiazol-4-yl)(5-((5-(trifluoromethyl)pyridin-2-ylamino)methyl)-6-azaspiro[2.5]octan-6-yl)methanone] | > 10000 | 25.1 | selectivity against the OX1 receptor (human OX1 receptor): same behaviour

Further lines, with some results ahead:

Kb (human OX2 receptor) [nM] | Kb (human OX1 receptor) [nM] | SMILES | other results
158 | 3.16 | O=C(c1ccccc1OCC1CC1)N1CCCCC1CNc1ccc(Cl)cn1 (stereo not shown) [comparison 4, reference compound] | –
> 10000 | 12.6 | Cc1ccnc(NC[C@@H]2CC3(CCN2C(=O)c2ccccc2-c2ccccc2)CC3)n1 [Compound 39, (S)-[1,1′-biphenyl]-2-yl(5-(((4-methylpyrimidin-2-yl)amino)methyl)-6-azaspiro[2.5]octan-6-yl)methanone] | –
79.4 | 5.01 | Cc1cc(C)nc(NC[C@@H]2CC3(CCN2C(=O)c2ccccc2-c2ccccc2)CC3)n1 [Compound 35, (S)-[1,1′-biphenyl]-2-yl(5-(((4,6-dimethylpyrimidin-2-yl)amino)methyl)-6-azaspiro[2.5]octan-6-yl)methanone] | –
3.98 | 3.16 | Cc1cccc(NCC2CCCCN2C(=O)c2nc(C)sc2-c2ccc(F)cc2)n1 (stereo not shown) [comparison 5, reference compound] | –
25.1 | 10 | Cc1nc(C(=O)N2CCCCC2CNc2ccc(Cl)cn2)c(-c2ccccc2)s1 (stereo not shown) [comparison 2, reference compound] | –
> 10000 | – | Cc1cc(C)nc(NC[C@@H]2CC3(CCN2C(=O)c2cc(Cl)ccc2Cl)CC3)n1 [Compound 37, (S)-(2,5-dichlorophenyl)(5-(((4,6-dimethylpyrimidin-2-yl)amino)methyl)-6-azaspiro[2.5]octan-6-yl)methanone] | –
3.16 | 1 | Cc1cccc(NCC2CCCCN2C(=O)c2nc(C)sc2-c2ccccc2)n1 (stereo not shown) [comparison 3, reference compound] | –
> 10000 | 7.94 | Cc1ccc(-n2nccn2)c(C(=O)N2CC3(CC3)C[C@H]2CNc2ccc(Cl)cn2)c1 [Compound 49, (S)-(6-(((5-chloropyridin-2-yl)amino)methyl)-5-azaspiro[2.4]heptan-5-yl)(5-methyl-2-(2H-1,2,3-triazol-2-yl)phenyl)methanone] | –
> 10000 | 6.31 | Cc1ccc(-c2ncccn2)c(C(=O)N2CC3(CC3)C[C@H]2CNc2ccc(Cl)cn2)c1 [Compound 51, (S)-(6-(((5-chloropyridin-2-yl)amino)methyl)-5-azaspiro[2.4]heptan-5-yl)(5-methyl-2-(pyrimidin-2-yl)phenyl)methanone] | –
31.6 | 126 | Cc1cccc(NCC2CCCCN2C(=O)c2ccccc2-c2ccccc2)n1 (stereo not shown) [comparison 1, reference compound] | –
> 10000 | 79.4 | Cc1ccc(-n2nccn2)c(C(=O)N2CC3(CC3)C[C@H]2CNc2cccc(C)n2)c1 [Compound 50, (S)-(5-methyl-2-(2H-1,2,3-triazol-2-yl)phenyl)(6-(((6-methylpyridin-2-yl)amino)methyl)-5-azaspiro[2.4]heptan-5-yl)methanone] | –
